Laboratory results taken from the supplement of paper PMC10307832.

Assays:
Test in all cases: relative viability (nuclei count vs DMSO), 5 days (fraction); higher = more cells survive
Trametinib + Bortezomib = compound: CC(=O)Nc1cccc(-n2c(=O)n(C3CC3)c(=O)c3c(Nc4ccc(I)cc4F)n(C)c(=O)c(C)c32)c1 [Trametinib] + CC(C)C[C@H](NC(=O)[C@H](Cc1ccccc1)NC(=O)c1cnccn1)B(O)O [Bortezomib] (partner 0.002 µM)
How it was run: (§1)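 Relative viability divides the nuclei count in treated wells by that in vehicle wells. Lung cancer cell lines were seeded in 1536-well plates, dosed by pin tool the next day, and fixed and stained after 5 days in one step with final 0.05% Triton X-100, 1% formaldehyde and 1 ug/ml Hoechst. Dosing was a single drug or a fixed anchor-drug dose plus five library-drug doses (not always all listed) in √10 steps, and values are medians of duplicate plates imaged at 4×.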

[1] = compound: CN1C=C(C2=CC=CC=C21)/C=C\3/C4=C(C=CC=N4)NC3=O + CCNC(=O)c1noc(-c2cc(C(C)C)c(O)cc2O)c1-c1ccc(CN2CCOCC2)cc1 [Luminespib] (partner 0.01 µM)
How it was run: as §1

[2] = compound: CN1C=C(C2=CC=CC=C21)/C=C\3/C4=C(C=CC=N4)NC3=O + COc1cc2c(Oc3ccc(NC(=O)C4(C(=O)Nc5ccc(F)cc5)CC4)cc3F)ccnc2cc1OCCCN1CCOCC1 [Foretinib] (partner 0.25 µM)
How it was run: as §1

[3] = compound: CN1C=C(C2=CC=CC=C21)/C=C\3/C4=C(C=CC=N4)NC3=O + Nc1ncn([C@H]2C[C@H](O)[C@@H](CO)O2)c(=O)n1 [Decitabine] (partner 2 µM)
How it was run: as §1

Row | Cell Line | relative viability (Trametinib + Bortezomib; first compound 0.0025 µM) | relative viability (Trametinib + Bortezomib; first compound 0.007906 µM) | relative viability (Trametinib + Bortezomib; first compound 0.025 µM) | relative viability (Trametinib + Bortezomib; first compound 0.07906 µM) | relative viability (Trametinib + Bortezomib; first compound 0.25 µM) | relative viability ([1]; first compound 0.02 µM) | relative viability ([1]; first compound 0.06325 µM) | relative viability ([1]; first compound 0.2 µM) | relative viability ([1]; first compound 0.6325 µM) | relative viability ([1]; first compound 2 µM) | relative viability ([2]; first compound 0.02 µM) | relative viability ([2]; first compound 0.06325 µM) | relative viability ([2]; first compound 0.2 µM) | relative viability ([2]; first compound 0.6325 µM) | relative viability ([2]; first compound 2 µM) | relative viability ([3]; first compound 0.02 µM) | relative viability ([3]; first compound 0.06325 µM) | relative viability ([3]; first compound 0.2 µM) | relative viability ([3]; first compound 0.6325 µM) | relative viability ([3]; first compound 2 µM)
1 | NCI-H1437 | 0.463 | 0.257 | 0.179 | 0.205 | 0.174 | 1.14 | 1.08 | 1.22 | 1.25 | 1.24 | 1.34 | 1.22 | 1.34 | 1.31 | 1.3 | 0.593 | 0.591 | 0.527 | 0.664 | 0.668
2 | NCI-H1650 | 0.218 | 0.19 | 0.182 | 0.198 | 0.188 | 0.19 | 0.183 | 0.195 | 0.203 | 0.207 | 1.21 | 1.05 | 0.98 | 1.26 | 1.22 | 0.419 | 0.427 | 0.378 | 0.385 | 0.45
3 | NCI-H1651 | 0.967 | 0.9 | 0.801 | 0.83 | 0.43 | 0.953 | 0.772 | 1.02 | 1.13 | 1.02 | 0.809 | 0.803 | 0.894 | 0.891 | 0.812 | 0.649 | 0.613 | 0.5 | 0.643 | 0.578
4 | NCI-H1666 | 0.639 | 0.591 | 0.499 | 0.452 | 0.401 | 1 | 1.04 | 1.05 | 0.99 | 1.04 | 0.972 | 0.991 | 0.938 | 0.879 | 1.02 | 0.7 | 0.701 | 0.591 | 0.764 | 0.658
5 | NCI-H1734 | 0.901 | 0.987 |  | 0.734 | 0.349 | 0.212 | 0.208 |  | 0.203 | 0.866 | 0.928 | 0.875 |  | 0.904 | 1.03 | 0.482 | 0.535 |  | 0.515 | 0.499
6 | NCI-H1755 | 0.847 | 0.835 | 0.806 | 0.843 | 0.679 | 0.376 | 0.369 | 0.541 | 0.37 | 0.387 | 0.813 | 0.83 | 0.899 | 0.838 | 0.833 | 0.668 | 0.758 | 0.674 | 0.675 | 0.691
7 | NCI-H1915 | 0.931 | 0.816 | 0.825 | 0.756 | 0.139 | 0.728 | 0.816 | 0.894 | 0.431 | 0.954 | 1.09 | 1.15 | 1.14 | 1.18 | 1.18 | 0.242 | 0.258 | 0.287 | 0.573 | 0.53
8 | NCI-H1975 | 0.303 | 0.224 | 0.206 | 0.173 | 0.169 | 0.0911 | 0.261 | 0.187 | 0.338 | 0.206 | 0.87 | 0.918 | 0.83 | 0.697 | 0.837 | 0.396 | 0.277 | 0.356 | 0.363 | 0.347
9 | NCI-H1993 | 0.861 | 0.834 | 0.558 | 0.48 | 0.596 | 0.828 | 0.686 | 0.813 | 0.67 | 0.369 | 0.665 | 0.739 | 0.72 | 0.788 | 0.688 | 0.532 | 0.589 | 1.3 | 0.578 | 0.529
10 | NCI-H2009 | 0.929 | 0.67 | 0.3 | 0.332 | 0.195 | 0.997 | 1.03 | 1.05 | 1.02 | 1.09 | 1.22 | 1.19 | 1.19 | 1.24 | 1.24 | 0.303 | 0.355 | 0.352 | 0.382 | 0.417
11 | NCI-H2023 | 0.957 | 0.791 | 0.582 | 0.806 | 0.212 | 0.899 | 0.602 | 0.763 | 0.914 | 0.527 | 0.841 | 0.837 |  | 0.924 | 0.746 | 0.245 | 0.215 | 0.193 | 0.229 | 0.245
12 | NCI-H2085 | 0.994 | 0.799 | 0.751 | 0.783 | 0.6 | 0.454 | 0.412 | 0.436 | 0.411 | 0.485 | 1.1 | 0.843 | 0.998 | 1.02 | 1.02 | 0.523 | 0.494 | 0.559 | 0.491 | 0.525
13 | NCI-H2087 | 0.899 | 0.669 | 0.446 | 0.327 | 0.129 | 0.173 | 0.175 | 0.197 | 0.151 | 0.154 | 1.05 | 1.11 | 1.3 | 1.04 | 1.04 | 0.227 | 0.239 | 0.255 | 0.326 | 0.363
14 | NCI-H2126 | 1.11 | 0.956 | 0.685 | 0.983 | 0.769 | 1 | 0.875 | 0.852 | 0.907 | 0.932 | 1.13 | 1.12 | 1.22 | 0.867 | 1.11 | 0.631 | 0.585 | 0.569 | 0.536 | 0.508
15 | NCI-H2347 | 1.08 | 0.818 | 0.338 | 0.389 | 0.337 |  | 0.288 | 0.352 | 0.339 | 0.569 | 1.13 | 0.76 | 0.988 | 0.707 | 0.748 | 0.563 | 0.552 | 0.588 | 0.582 | 0.608
16 | NCI-H2405 | 0.999 | 0.909 | 0.657 | 0.597 | 0.508 | 0.809 | 0.603 | 0.629 | 0.738 | 0.74 | 1.04 | 1.03 | 0.896 | 1.01 | 1.05 | 0.739 | 0.676 | 0.653 | 0.725 | 0.734
